The target of experiment [1] is T1, ASGPR receptor on the cell surface (HepG2 cells) (Homo sapiens, UniProt P07306).
T1 construct: host or cells: HepG2
T1 sequence (P07306 1-291): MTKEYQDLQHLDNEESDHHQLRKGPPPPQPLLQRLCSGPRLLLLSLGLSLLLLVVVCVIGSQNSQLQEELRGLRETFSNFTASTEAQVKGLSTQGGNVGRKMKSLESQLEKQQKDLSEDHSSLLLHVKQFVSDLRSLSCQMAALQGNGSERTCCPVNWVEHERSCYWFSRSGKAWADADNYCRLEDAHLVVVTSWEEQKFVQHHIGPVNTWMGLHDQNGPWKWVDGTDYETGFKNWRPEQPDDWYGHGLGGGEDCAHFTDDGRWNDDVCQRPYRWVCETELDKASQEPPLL
T1 sequence (P07307 1-311 partner): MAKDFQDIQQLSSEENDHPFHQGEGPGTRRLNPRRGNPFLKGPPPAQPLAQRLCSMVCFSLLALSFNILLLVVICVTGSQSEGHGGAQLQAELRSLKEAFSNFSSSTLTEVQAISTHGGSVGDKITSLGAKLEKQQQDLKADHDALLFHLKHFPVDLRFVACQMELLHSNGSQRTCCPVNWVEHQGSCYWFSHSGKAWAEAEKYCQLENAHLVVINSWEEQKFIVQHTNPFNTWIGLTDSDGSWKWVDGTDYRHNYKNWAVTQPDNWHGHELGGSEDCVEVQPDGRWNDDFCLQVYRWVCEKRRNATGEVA
Kind of experiment: Ternary complex formation assay (flow cytometry, HepG2). Type of experiment: cell-based. From the text: The ternary complex formation assay is designed to identify the concentration of Degrader required to form a complex between the degrader, a constant concentration of fluorescently-labeled antibody and the ASGPR receptor on the cell surface. The peak mean fluorescence intensity (MFI) occurs at the optimal degrader concentration for ternary complex formation. Sub-optimal concentrations of degrader (too much or too little) results in fewer complexes formed and a reduced […].
Human IgG (Sigma-Aldrich, 14506) was covalently labeled with Alexa Fluor 488 using the Alexa Fluor™ 488 Protein Labeling Kit (Thermo Fisher, A10235) following the manufacturer's instructions. HepG2 cells (ATCC, HIB-8065) were cultured to about 70% confluence and harvested by trypsinization. Single cell suspensions of HepG2 cells were plated in 96 well plates at 1×10^5 cells/well in cell culture media (DMEM supplemented with […]) and placed at 4° C. For studies using human IgG, cells were incubated with 100 nM AF488-labeled anti-human IgG and serial dilutions of IgG-based degrader for 1 hour at 4° C. For studies using DNP, cells were incubated with 100 nM AF488-labeled polyclonal rabbit anti-dinitrophenyl (DNP) antibodies (ThermoFisher) and serial dilutions of DNP-based degrader for 1 hour at 4° C. After washing once with ice-cold PBS containing 0.1% BSA and 0.1% sodium azide, cells were resuspended in 150 uL PBS+0.1% BSA and cell-associated AF488 fluorescence was measured by flow cytometry using the iQue® Screener PLUS Flow Cytometer (IntelliCyt).

The next experiment deals with HepG2 cells. The experiment in a line: Cellular uptake assay of AF488-labeled antibody (HepG2). Type of experiment: cell-based. Here is the method:
The cellular uptake assay is designed to measure compound-mediated cellular uptake of fluorescently labeled antibody following ternary complex formation with the ASGPR receptor and endocytosis of the entire complex into cells.
Human IgG (Sigma-Aldrich, 14506) was covalently labeled with Alexa Fluor 488 using the Alexa Fluor™ 488 Protein Labeling Kit (Thermo Fisher, A10235) following the manufacturer's instructions. HepG2 cells were plated in DMEM supplemented with 10% FBS at 5,000 cells per well in a 96-well microtiter plate and incubated for approximately 18 hours at 37° C./5% CO2. For studies using human IgG, 100 nM AF488-labeled human IgG antibodies and serial dilutions of IgG-based degrader (0.1% DMSO final concentration) were added to the cells and the mixture was incubated at 37° C. for 6 hours. For studies using DNP, 100 nM AF488-labeled DNP antibodies and serial dilutions of DNP-based degrader (0.1% DMSO final concentration) were added to the cells and the mixture was incubated at 37° C. for 6 hours. HepG2 cells were fixed in 100% methanol at −20° C. for 20 min, washed 3× with PBS, then stained with DAPI (Thermo, Cat #H3570). HepG2 cells were imaged for DAPI and Alexa Fluor 488 using the Operetta CLS, high-content analysis system (PerkinElmer). Data is presented as the ratio of the number of cells positive for hIgG or DNP (AF-488 fluorescence) over the total cell number (measured by DAPI).

A further experiment addresses T2, ASGPR (Homo sapiens, UniProt P07306).
T2 sequence (P07306 1-291): T1 sequence (P07306 1-291)
The experiment in a line: Affinity to ASGPR by surface plasmon resonance (SPR).

[2] abbreviates: HepG2 cells, read-out: Uptake EC50.
Where [3] appears, read: HepG2 cells, 100 nM AF488-labeled antibody, 37° C. for 6 hours, class symbols, read-out: Uptake Assay EC50.

Like-named read-outs stand apart in the source and are kept apart here.

With `CC(C)C[C@@H]1NC(=O)[C@H](Cc2c[nH]cn2)NC(=O)[C@H](Cc2c[nH]c3ccccc23)NC(=O)[C@H](C)NC(=O)[C@@H](NC(=O)[C@H](CC(=O)O)NC(=O)CCOCCOCCOCCOCCNC(=O)CCCc2cn(CCCCCC(=O)NC(COCCC(=O)NCCOCCOCCOCCOC[C@H]3OC[C@H](Nc4nccc(C(F)(F)F)n4)C[C@H]3O)COCCC(=O)NCCOCCOCCOCCOC[C@H]3OC[C@H](Nc4nccc(C(F)(F)F)n4)C[C@H]3O)nn2)CSSC[C@@H](C(=O)N[C@H](C(N)=O)[C@@H](C)O)NC(=O)[C@H](Cc2c[nH]c3ccccc23)NC(=O)[C@H](C(C)C)NC(=O)[C@H](CC(C)C)NC(=O)[C@H](CCC(=O)O)NC(=O)CNC1=O` [Compound 88], the EC50 (in experiment [1]; in the experiment with HepG2 cells (setting [2])) was > 1000 nM throughout. Besides, at ASGPR, the Kd is > 1000 nM.

For `O=[N+]([O-])c1ccc(NCCOCCOCCOCCOC[C@@]23CO[C@@H](O2)[C@H](Nc2nc(Cl)ns2)[C@@H](O)[C@H]3O)c([N+](=O)[O-])c1` [Compound 27, (1S,2R,3R,4R,5S)-4-((3-chloro-1,2,4-thiadiazol-5-yl)amino)-1-(13-((2,4-dinitrophenyl)amino)-2,5,8,11-tetraoxatridecyl)-6,8-dioxabicyclo[3.2.1]octane-2,3-diol], the EC50 in experiment [1] (Ternary Complex EC50 (nM), HepG2 cells, 100 nM AF488-labeled antibody, 1 hour at 4° C., class symbols) was < 100 nM; in the experiment on HepG2 cells (Homo sapiens, HepG2, 6 h, read-out: Uptake Assay EC50 (nM)) it was < 100 nM. The Kd at ASGPR was < 100 nM.

As for `CC(C)C[C@@H]1NC(=O)[C@H](Cc2c[nH]cn2)NC(=O)[C@H](Cc2c[nH]c3ccccc23)NC(=O)[C@H](C)NC(=O)[C@@H](NC(=O)[C@H](CC(=O)O)NC(=O)CCOCCOCCOCCOCCNC(=O)CCCc2cn(CCCCCC(=O)NC(COCCC(=O)NCCOCCOCCOCCOC[C@@H]3CC[C@@H](Nc4nccc(C(F)(F)F)n4)CO3)COCCC(=O)NCCOCCOCCOCCOC[C@@H]3CC[C@@H](Nc4nccc(C(F)(F)F)n4)CO3)nn2)CSSC[C@@H](C(=O)N[C@H](C(N)=O)[C@@H](C)O)NC(=O)[C@H](Cc2c[nH]c3ccccc23)NC(=O)[C@H](C(C)C)NC(=O)[C@H](CC(C)C)NC(=O)[C@H](CCC(=O)O)NC(=O)CNC1=O` [Compound 87], the EC50 was > 1000 nM in experiment [1] (HepG2 cells, ternary complex formation, read-out: TCF EC50) and > 1000 nM in the experiment with HepG2 cells (setting [2]). Moreover, the Kd at ASGPR was > 1000 nM.

For the compound `CC(C)C[C@@H]1NC(=O)[C@H](Cc2c[nH]cn2)NC(=O)[C@H](Cc2c[nH]c3ccccc23)NC(=O)[C@H](C)NC(=O)[C@@H](NC(=O)[C@@H](N)CC(=O)O)CSSC[C@@H](C(=O)N[C@H](C(N)=O)[C@@H](C)O)NC(=O)[C@H](Cc2c[nH]c3ccccc23)NC(=O)[C@H](C(C)C)NC(=O)[C@H](CC(C)C)NC(=O)[C@H](CCC(=O)NCCOCCOCCOCCOCCNC(=O)CCCc2cn(CCCCCC(=O)NC(COCCC(=O)NCCOCCOCCOCCOC[C@@]34CO[C@@H](O3)[C@H](Nc3nc(Cl)ns3)[C@@H](O)[C@H]4O)COCCC(=O)NCCOCCOCCOCCOC[C@@]34CO[C@@H](O3)[C@H](Nc3nc(Cl)ns3)[C@@H](O)[C@H]4O)nn2)NC(=O)CNC1=O` [Compound 3], the EC50 in experiment [1] is < 100 nM; in experiment [1] (read-out: Ternary Complex EC50), < 100 nM; in the experiment on HepG2 cells (setting [3]), 500 to 1000 nM; in the experiment with HepG2 cells (setting [2]), < 100 nM.

In the case of `CC(C)C[C@@H]1NC(=O)[C@H](Cc2c[nH]cn2)NC(=O)[C@H](Cc2c[nH]c3ccccc23)NC(=O)[C@H](C)NC(=O)[C@@H]2CSSC[C@H](NC(=O)[C@H](Cc3c[nH]c4ccccc34)NC(=O)[C@H](C(C)C)NC(=O)[C@H](CC(C)C)NC(=O)[C@H](CCC(=O)O)NC(=O)CNC1=O)C(=O)N[C@@H]([C@@H](C)O)C(=O)N1CCC[C@@H]1C(=O)N1C[C@H](NC(=O)c3ccc(N4CCC(CN5CCN(C[C@H]6OC[C@H](Nc7cncc(C(F)(F)F)n7)[C@@H](O)[C@H]6O)CC5)CC4)cc3)C[C@H]1C(=O)N[C@@H](CC(=O)O)C(=O)N2` [Compound 93], the EC50 (in experiment [1]; with HepG2 cells (setting [2])) was < 100 nM in each case.

In the case of `CC(C)C[C@@H]1NC(=O)[C@H](Cc2c[nH]cn2)NC(=O)[C@H](Cc2c[nH]c3ccccc23)NC(=O)[C@H](C)NC(=O)[C@@H]2CSSC[C@H](NC(=O)[C@H](Cc3c[nH]c4ccccc34)NC(=O)[C@H](C(C)C)NC(=O)[C@H](CC(C)C)NC(=O)[C@H](CCC(=O)O)NC(=O)CNC1=O)C(=O)N[C@@H]([C@@H](C)O)C(=O)N1CCC[C@@H]1C(=O)N1C[C@@H](NC(=O)CCOCCOCCOCCOCCNC(=O)CCCc3cn(CCCCCC(=O)NC(COCCC(=O)NCCOCCOCCOCCO[C@@H]4O[C@H](CO)[C@H](O)[C@H](O)[C@H]4Nc4cncc(C(F)(F)F)n4)COCCC(=O)NCCOCCOCCOCCO[C@@H]4O[C@H](CO)[C@H](O)[C@H](O)[C@H]4Nc4cncc(C(F)(F)F)n4)nn3)C[C@H]1C(=O)N[C@@H](CC(=O)O)C(=O)N2` [Compound 82], the concentration for a half-maximal effect (EC50) (in experiment [1]; in the experiment with HepG2 cells (setting [2])) was < 100 nM throughout.

With `CC(C)C[C@@H]1NC(=O)[C@H](Cc2c[nH]cn2)NC(=O)[C@H](Cc2c[nH]c3ccccc23)NC(=O)[C@H](C)NC(=O)[C@@H]2CSSC[C@H](NC(=O)[C@H](Cc3c[nH]c4ccccc34)NC(=O)[C@H](C(C)C)NC(=O)[C@H](CC(C)C)NC(=O)[C@H](CCC(=O)O)NC(=O)CNC1=O)C(=O)N[C@@H]([C@@H](C)O)C(=O)N1CCC[C@@H]1C(=O)N1C[C@@H](NC(=O)COCC(=O)NC(COCCC(=O)NCCOCCOCCOCCOC[C@H]3OC[C@H](Nc4cncc(C(F)(F)F)n4)[C@@H](O)[C@H]3O)COCCC(=O)NCCOCCOCCOCCOC[C@H]3OC[C@H](Nc4cncc(C(F)(F)F)n4)[C@@H](O)[C@H]3O)C[C@H]1C(=O)N[C@@H](CC(=O)O)C(=O)N2` [Compound 43], the EC50 (in experiment [1]; with HepG2 cells (setting [3])) was < 100 nM in each case.

With `CC(C)C[C@@H]1NC(=O)[C@H](Cc2cnc[nH]2)NC(=O)[C@H](Cc2c[nH]c3ccccc23)NC(=O)[C@H](C)NC(=O)[C@@H]2CSSC[C@H](NC(=O)[C@H](Cc3c[nH]c4ccccc34)NC(=O)[C@H](C(C)C)NC(=O)[C@H](CC(C)C)NC(=O)[C@H](CCC(=O)O)NC(=O)CNC1=O)C(=O)N[C@@H]([C@@H](C)O)C(=O)N1CCC[C@@H]1C(=O)N1C[C@@H](NC(=O)COCCOCC(=O)NC(COCCC(=O)NCCOCCOCCOCCOC[C@H]3OC[C@H](Nc4nccc(C(F)(F)F)n4)[C@@H](O)[C@H]3O)COCCC(=O)NCCOCCOCCOCCOC[C@H]3OC[C@H](Nc4nccc(C(F)(F)F)n4)[C@@H](O)[C@H]3O)C[C@H]1C(=O)N[C@@H](CC(=O)O)C(=O)N2` [Compound 47], the EC50 in experiment [1] (HepG2 cells, 100 nM AF488-labeled antibody, 1 hour at 4° C., class symbols, read-out: Ternary Complex EC50) was < 100 nM; in the experiment with HepG2 cells (setting [3]), < 100 nM.

Values taken from US12091402B2 (Avilar Therapeutics, Inc., priority 2021, dated 2024).
